Data as given in patent publication US20220339271A1, “MR1 RESTRICTED T CELL RECEPTORS FOR CANCER IMMUNOTHERAPY” (Universität Basel, priority 2018, published 2022).

What was measured:
Type in all cases: cell-based, human
control MAIT cells = assay: E. coli stimulation of control MAIT cells in the presence of 6-FP or Ac-6-FP; details: for E. coli stimulation of control MAIT cells in the presence of the ligand: A375-MR1 target cells; for inhibition of activation of MAIT cells: target A375 cells expressing mutant MR1 (A375-MR1 K34A)
Protocol: (§1) T cell activation assays. MR1-restricted T cells (5×10^4/well unless otherwise indicated) were co-cultured with indicated target cells (5×10^4/well) in 200 μl total volume in duplicates or triplicates. T cells were cultured with indicated APCs for 24 h. […] E. coli lysate was prepared from the DH5α strain (Invitrogen) grown in LB medium and collected during exponential growth. Bacterial cells were washed twice in PBS and then lysed by sonication. After centrifugation (15,000 g for 15 min), the supernatant was collected, dried, and stored at −70° C. APCs were pulsed for 4 h with E. coli lysate equivalent to 10^8 CFU/ml (unless otherwise indicated) before addition of T cells. In some experiments, APCs were pre-incubated with 6-FP or Ac-6-FP (Schircks Laboratories) for 4 h before co-culture with T cells. In control experiments with TCR γδ cells expressing TCR Vγ9 and Vδ2 chains, the APCs were first treated for 6 h with zoledronate (10 μg/ml) prior to T cell addition. Activation experiments with plate-bound recombinant human β2m-MR1-Fc were performed by coating β2m-MR1-Fc onto 96 well plates (4 μg/ml) and loading with cartridge-purified cell lysates for 4 h at 37° C. before washing twice and adding T cells. Supernatants were collected after 24 h and IFN-γ or GM-CSF were assessed by ELISA. Multiple cytokines and chemokines in cell culture supernatants were analyzed using the Milliplex MAP human cytokine/chemokine magnetic bead panel—Premixed 41 plex (HCYTMAG-60K-PX41; Merck Millipore) according to the manufacturer's instructions. Samples were acquired on a Flexmap 3D system (Merck Millipore) and Milliplex analyst software was used to determine mean fluorescence intensity and analyte concentration.

MR1T cell clones = assay: MR1T cell clone stimulation by A375-MR1 cells in the presence of 6-FP or Ac-6-FP; details: for MR1T cell stimulation in the presence of the ligand: A375-MR1 target cells; for inhibition of activation of MR1T cells: target A375 cells expressing mutant MR1 (A375-MR1 K34A)
Protocol: as §1

TCR Vγ9Vδ2 clone G2B9 = assay: Control TCR γδ cell response to zoledronate-treated APCs in the presence of 6-FP or Ac-6-FP
Protocol: as §1, with “In control experiments with TCR γδ cells expressing TCR Vγ9 and Vδ2 chains, the APCs were first treated for 6 h with zoledronate (10 μg/ml) prior to T cell addition. Activation experiments with plate-bound recombinant human β2m-MR1-Fc were performed by coating β2m-MR1-Fc onto 96 well plates (4 μg/ml) and loading with cartridge-purified cell lysates for 4 h at 37° C. before washing twice and adding T cells.” left out

MAIT cell clone SMC3 = assay: Stimulation of control MAIT cell clone by RL-6,7-diMe-loaded THP-1 cells
Protocol: T cell activation assays. MR1-restricted T cells (5×10^4/well unless otherwise indicated) were co-cultured with indicated target cells (5×10^4/well) in 200 μl total volume in duplicates or triplicates. T cells were cultured with indicated APCs for 24 h. In some experiments, anti-MR1 mAbs (clone 26.5) or mouse IgG2a isotype control mAbs (both at 30 μg/ml) were added and incubated for 30 min prior to the addition of T cells. E. coli lysate was prepared from the DH5α strain (Invitrogen) grown in LB medium and collected during exponential growth. Bacterial cells were washed twice in PBS and then lysed by sonication. After centrifugation (15,000 g for 15 min), the supernatant was collected, dried, and stored at −70° C. APCs were pulsed for 4 h with E. coli lysate equivalent to 10^8 CFU/ml (unless otherwise indicated) before addition of T cells. […] Supernatants were collected after 24 h and IFN-γ or GM-CSF were assessed by ELISA. Multiple cytokines and chemokines in cell culture supernatants were analyzed using the Milliplex MAP human cytokine/chemokine magnetic bead panel—Premixed 41 plex (HCYTMAG-60K-PX41; Merck Millipore) according to the manufacturer's instructions. Samples were acquired on a Flexmap 3D system (Merck Millipore) and Milliplex analyst software was used to determine mean fluorescence intensity and analyte concentration.

| SMILES | E. coli stimulation of control MAIT cells in the presence of the ligand (control MAIT cells) | inhibition of activation of MAIT cells (control MAIT cells) | MR1T cell stimulation in the presence of the ligand (MR1T cell clones) | inhibition of activation of MR1T cells (MR1T cell clones) | control TCR γδ cell responses to cognate antigen presented by the same APCs (compound toxicity) (TCR Vγ9Vδ2 clone G2B9) | stimulation of control MAIT cell clone (MAIT cell clone SMC3) |
| --- | --- | --- | --- | --- | --- | --- |
| Nc1nc2ncc(C=O)nc2c(=O)[nH]1 [Clone 6-FP, 6-formyl pterin] | impaired | failed to inhibit | impaired | failed to inhibit | did not disrupt |  |
| CC(=O)Nc1nc2ncc(C=O)nc2c(=O)[nH]1 [Ac-6-FP, acetyl-6-formyl pterin] | impaired | failed to inhibit | impaired | failed to inhibit | did not disrupt |  |
| Cc1nc2c(=O)[nH]c(=O)nc-2n(C[C@H](O)[C@H](O)[C@H](O)CO)c1C [RL-6,7-diMe, 6,7-dimethyl-8-D-ribityllumazine] |  |  |  |  |  | stimulated in MR1-dependent manner |
